Here are results for ten molecules from US20170355708A1, “POTASSIUM CHANNEL MODULATORS” (Cadent Therapeutics, Inc., priority 2016, published 2017).

Molecules are shown by their SMILES.

The test concerns the target T1, hSK2 channels (Homo sapiens, UniProt P0DP23+Q9H2S1).
T1 construct: expressed in transfected cells; host or cells: HEK293
Nature of the test: Whole-cell patch-clamp recording of SK2 channel current (SC100). The format is cell-based. The following applies: Stimulating Concentration required for increasing the baseline current by 100%; HEK293 cells expressing hSK2; Table 4. Put shortly:
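Whole-cell patch-clamp recording of SK2 current in HEK293 cells expressing hSK2 channels. SC100 is the concentration increasing baseline current by 100%.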
Background: In patch-clamp work, channel activity is measured electrically.
As for `Fc1ccc(Nc2ccnc(-n3ccc(C4CC4)n3)n2)cc1` [IN11166-018-P1, 2-(3-cyclopropyl-1H-pyrazol-1-yl)-N-(4-fluorophenyl) pyrimidin-4-amine], the “SC100 (μM)” value is on record as “+ (+ means >1 uM)”. Turning to `Cc1cc(Nc2ccc(F)cc2)nc(-c2ccc(C)[nH]2)n1` [IN11196-053-P1, N-(4-fluorophenyl)-6-methyl-2-(5-methyl-1H-pyrrol-2-yl)pyrimidin-4-amine], the “SC100 (μM)” value is “+ (+ means >1 uM)”. Consider `Cc1cc(Nc2ccc(F)cc2)nc(-c2nc(C)ccc2C)n1` [IN11237-001-P1, 2-(3,6-dimethylpyridin-2-yl)-N-(4-fluorophenyl)-6-methylpyrimidin-4-amine], for which the “SC100 (μM)” value is recorded as “+ (+ means >1 uM)”. Turning to `CC1(O)CN(c2cc(Nc3ccc(F)cc3)nc(-n3ccc(CF)n3)c2)C1` [NSSy5632], the “SC100 (μM)” value is recorded as “+++ (+++ means <200 nM)”. `Cc1ccn(-c2cc(CN3CCCC3=O)cc(Nc3ccc(Cl)cc3)n2)n1` [NSSy5701, 1-((2-((4-chlorophenyl)amino)-6-(3-methyl-1H-pyrazol-1-yl)pyridin-4-yl)methyl) pyrrolidin-2-one]: the “SC100 (μM)” value was “+++ (+++ means <200 nM)”. Take `CN(C)C1CN(c2cc(Nc3ccc(F)cc3)nc(-n3ccc(CF)n3)c2)C1` [NSSy5713]: the “SC100 (μM)” value is on record as “+ (+ means >1 uM)”. In the case of `Cc1ccn(-c2cc(CO)cc(Nc3ccc(F)cc3F)n2)n1` [NSSy6773, (2-((2,4-difluorophenyl)amino)-6-(3-methyl-1H-pyrazol-1-yl)pyridin-4-yl) methanol], the “SC100 (μM)” value is “++ (++ means 200 nM-1000 nM)”. For `Cc1cccc(-c2nc(Nc3ccc(F)cc3)cc(N3CCOCC3)n2)n1` [NSSy6907, N-(4-fluorophenyl)-2-(6-methylpyridin-2-yl)-6-morpholinopyrimidin-4-amine], the “SC100 (μM)” value is recorded as “++ (++ means 200 nM-1000 nM)”.

For the molecule `COc1cc(Nc2ccc(F)cc2)nc(-c2cccc(C)n2)n1` [NSSy6908], the “SC100 (μM)” value is given as “+ (+ means >1 uM)”. On to `Cc1cc(Nc2ccc(F)cc2)nc(-n2ccc(C3CC3)n2)n1` [NSSy6921, 2-(3-cyclopropyl-1H-pyrazol-1-yl)-N-(4-fluorophenyl)-6-methylpyrimidin-4-amine], for which the “SC100 (μM)” value is recorded as “+ (+ means >1 uM)”.
